Assay results taken from the NIST ThermoML archive (doi:10.1021/je060271a).
Where “and” joins values, the source holds several entries; their conditions need not be identical. Equal entries are not always repeated. ± gives the expanded uncertainty stated by the source.

Conditions: 323.16 K, Liquid, Vibrating tube method

CCCCCC(=O)OCC(COC(=O)CCCCC)(COC(=O)CCCCC)COC(=O)CCCCC [pentaerythritol tetrahexanoate]
mass density (1057.9 kPa): 973.4 ± 1.2 kg/m3
mass density (1108.4 kPa): 973.5 ± 1.2 kg/m3
mass density (1111.9 kPa): 973.6 ± 1.2 kg/m3
mass density (1116.1 kPa): 973.5 ± 1.2 kg/m3
mass density (1120.2 kPa): 973.4 ± 1.2 kg/m3
mass density (1124.1 kPa): 973.4 ± 1.2 kg/m3
mass density (1169 kPa): 973.6 ± 1.2 kg/m3
mass density (1173 kPa): 973.5 ± 1.2 kg/m3
mass density (1178.4 kPa): 973.6 ± 1.2 kg/m3
mass density (1182.7 kPa): 973.5 ± 1.2 kg/m3
mass density (1188.3 kPa): 973.4 ± 1.2 kg/m3
mass density (1192.5 kPa): 973.4 ± 1.2 kg/m3
mass density (1197 kPa): 973.5 ± 1.2 kg/m3
mass density (1201.3 kPa): 973.4 ± 1.2 kg/m3
mass density (1206.2 kPa): 973.5 ± 1.2 kg/m3
mass density (1211.4 kPa): 973.6 ± 1.2 kg/m3
mass density (1215.4 kPa): 973.6 ± 1.2 kg/m3
mass density (1219.4 kPa): 973.6 ± 1.2 kg/m3
mass density (1224.6 kPa): 973.5 ± 1.2 kg/m3
mass density (1228.9 kPa): 973.6 ± 1.2 kg/m3
mass density (1234 kPa): 973.5 ± 1.2 kg/m3
mass density (1239.2 kPa): 973.4 ± 1.2 kg/m3
mass density (1336.1 kPa): 973.5 ± 1.2 kg/m3
mass density (1340.9 kPa): 973.6 ± 1.2 kg/m3
mass density (1346.8 kPa): 973.6 ± 1.2 kg/m3
mass density (1352 kPa): 973.7 ± 1.2 kg/m3
mass density (1357.4 kPa): 973.6 ± 1.2 kg/m3
mass density (1362.4 kPa): 973.6 ± 1.2 kg/m3
mass density (1368 kPa): 973.6 ± 1.2 kg/m3
mass density (1372.9 kPa): 973.7 ± 1.2 kg/m3
mass density (1383.8 kPa): 973.7 ± 1.2 kg/m3
mass density (1389.5 kPa): 973.7 ± 1.2 kg/m3
mass density (1395.4 kPa): 973.6 ± 1.2 kg/m3
mass density (1400.6 kPa): 973.7 ± 1.2 kg/m3
mass density (1405.7 kPa): 973.7 ± 1.2 kg/m3
mass density (1542.7 kPa): 973.7 ± 1.2 kg/m3
mass density (1548.7 kPa): 973.7 ± 1.2 kg/m3
mass density (1555.9 kPa): 973.7 ± 1.2 kg/m3
mass density (1561.4 kPa): 973.8 ± 1.2 kg/m3
mass density (1568.9 kPa): 973.8 ± 1.2 kg/m3
mass density (1574.8 kPa): 973.8 ± 1.2 kg/m3
mass density (1580.3 kPa): 973.9 ± 1.2 kg/m3
mass density (1587.3 kPa): 973.9 ± 1.2 kg/m3
mass density (1592.8 kPa): 974 ± 1.2 kg/m3
mass density (1784.1 kPa): 973.9 ± 1.2 kg/m3
mass density (1792.4 kPa): 974 ± 1.2 kg/m3
mass density (1799.4 kPa): 973.9 ± 1.2 kg/m3
mass density (1808.1 kPa): 974 ± 1.2 kg/m3
mass density (1815.2 kPa): 974 ± 1.2 kg/m3
mass density (1823.9 kPa): 974 ± 1.2 kg/m3
mass density (1831.3 kPa): 974 ± 1.2 kg/m3
mass density (1839.8 kPa): 974 ± 1.2 kg/m3
mass density (1848.7 kPa): 974 ± 1.2 kg/m3
mass density (1856.1 kPa): 973.9 ± 1.2 kg/m3
mass density (1864.5 kPa): 974 ± 1.2 kg/m3
mass density (1872.1 kPa): 974 ± 1.2 kg/m3
mass density (1879.9 kPa): 973.9 ± 1.2 kg/m3
mass density (1889.3 kPa): 974 ± 1.2 kg/m3
mass density (1998.3 kPa): 974 ± 1.2 kg/m3
mass density (2007.3 kPa): 974 ± 1.2 kg/m3
mass density (2015.3 kPa): 974.1 ± 1.2 kg/m3
mass density (2024.8 kPa): 974.2 ± 1.2 kg/m3
mass density (2032.8 kPa): 974.2 ± 1.2 kg/m3
mass density (2042.2 kPa): 974.1 ± 1.2 kg/m3
mass density (2051.9 kPa): 974.2 ± 1.2 kg/m3
mass density (2078.2 kPa): 974.2 ± 1.2 kg/m3
mass density (2086.8 kPa): 974.2 ± 1.2 kg/m3
mass density (2097.3 kPa): 974.1 ± 1.2 kg/m3
mass density (2105.3 kPa): 974.2 ± 1.2 kg/m3
mass density (2275.9 kPa): 974.3 ± 1.2 kg/m3
mass density (2285.6 kPa): 974.2 ± 1.2 kg/m3
mass density (2297.5 kPa): 974.3 ± 1.2 kg/m3
mass density (2309.2 kPa): 974.3 ± 1.2 kg/m3
mass density (2319 kPa): 974.3 ± 1.2 kg/m3
mass density (2329.5 kPa): 974.3 ± 1.2 kg/m3
mass density (2339.5 kPa): 974.4 ± 1.2 kg/m3
mass density (2350.8 kPa): 974.3 ± 1.2 kg/m3
mass density (2360.3 kPa): 974.3 ± 1.2 kg/m3
mass density (2372.6 kPa): 974.1 ± 1.2 kg/m3
mass density (2382.7 kPa): 974.2 ± 1.2 kg/m3
mass density (2394.7 kPa): 974.5 ± 1.2 kg/m3
mass density (2404.4 kPa): 974.2 ± 1.2 kg/m3
mass density (2416.5 kPa): 974.4 ± 1.2 kg/m3
mass density (2428.5 kPa): 974.4 ± 1.2 kg/m3
mass density (2438.7 kPa): 974.4 ± 1.2 kg/m3
mass density (2448.6 kPa): 974.5 ± 1.2 kg/m3
mass density (2460.9 kPa): 974.4 ± 1.2 kg/m3
mass density (2471.7 kPa): 974.4 ± 1.2 kg/m3
mass density (2484.5 kPa): 974.5 ± 1.2 kg/m3
mass density (3633.2 kPa): 975.3 ± 1.2 kg/m3
mass density (3649.5 kPa): 975.3 ± 1.2 kg/m3
mass density (3663.4 kPa): 975.2 ± 1.2 kg/m3
mass density (3679.8 kPa): 975.3 ± 1.2 kg/m3
mass density (3696.6 kPa): 975.2 ± 1.2 kg/m3
mass density (3710.8 kPa): 975.3 ± 1.2 kg/m3
mass density (3725 kPa): 975.2 ± 1.2 kg/m3
mass density (3741.8 kPa): 975.2 ± 1.2 kg/m3
mass density (3756 kPa): 975.3 ± 1.2 kg/m3
mass density (3773.4 kPa): 975.3 ± 1.2 kg/m3
mass density (3790.9 kPa): 975.4 ± 1.2 kg/m3
mass density (9966.7 kPa): 979.5 ± 1.2 kg/m3
mass density (9977.9 kPa): 979.5 ± 1.2 kg/m3
mass density (10002 kPa): 979.7 ± 1.2 kg/m3
mass density (10012 kPa): 979.7 ± 1.2 kg/m3
mass density (10025 kPa): 979.6 ± 1.2 kg/m3
mass density (10037 kPa): 979.6 ± 1.2 kg/m3
mass density (10040 kPa): 979.6 ± 1.2 kg/m3
mass density (10048 kPa): 979.7 ± 1.2 kg/m3
mass density (10060 kPa): 979.7 ± 1.2 kg/m3
mass density (10071 kPa): 979.8 ± 1.2 kg/m3
mass density (10084 kPa): 979.7 ± 1.2 kg/m3
mass density (10096 kPa): 979.7 ± 1.2 kg/m3
mass density (11088 kPa): 980.3 ± 1.2 kg/m3
mass density (11101 kPa): 980.4 ± 1.2 kg/m3
mass density (11112 kPa): 980.3 ± 1.2 kg/m3
mass density (11122 kPa): 980.3 ± 1.2 kg/m3
mass density (11136 kPa): 980.4 ± 1.2 kg/m3
mass density (11150 kPa): 980.5 ± 1.2 kg/m3
mass density (11155 kPa): 980.3 ± 1.2 kg/m3
mass density (11157 kPa): 980.4 ± 1.2 kg/m3
mass density (11160 kPa): 980.4 ± 1.2 kg/m3
mass density (11163 kPa): 980.4 ± 1.2 kg/m3
mass density (11168 kPa): 980.4 ± 1.2 kg/m3
mass density (11174 kPa): 980.3 ± 1.2 kg/m3
mass density (11186 kPa): 980.4 ± 1.2 kg/m3
mass density (11198 kPa): 980.4 ± 1.2 kg/m3
mass density (11199 kPa): 980.3 ± 1.2 kg/m3
mass density (11200 kPa): 980.4 ± 1.2 kg/m3
mass density (12660 kPa): 981.3 ± 1.2 kg/m3
mass density (12684 kPa): 981.3 ± 1.2 kg/m3
mass density (12713 kPa): 981.5 ± 1.2 kg/m3
mass density (12737 kPa): 981.5 ± 1.2 kg/m3
mass density (12767 kPa): 981.4 ± 1.2 kg/m3
mass density (12791 kPa): 981.5 ± 1.2 kg/m3
mass density (12819 kPa): 981.5 ± 1.2 kg/m3
mass density (12848 kPa): 981.4 ± 1.2 kg/m3
mass density (12871 kPa): 981.5 ± 1.2 kg/m3
mass density (12899 kPa): 981.4 ± 1.2 kg/m3
mass density (15446 kPa): 983.2 ± 1.2 kg/m3
mass density (15470 kPa): 983.2 ± 1.2 kg/m3
mass density (15500 kPa): 983.1 ± 1.2 kg/m3
mass density (16331 kPa): 983.8 ± 1.2 kg/m3 and 983.7 ± 1.2 kg/m3
mass density (16333 kPa): 983.7 ± 1.2 kg/m3
mass density (16334 kPa): 983.8 ± 1.2 kg/m3 and 983.7 ± 1.2 kg/m3
mass density (16336 kPa): 983.8 ± 1.2 kg/m3
